This is an account of results in US6194451A, “Matrix metalloproteinase inhibitors” (Pharmacia & Upjohn S.p.A., priority 1997, dated 2001).

Each structure is given as a SMILES string.

Data set [1] deals with T1, MMP-1 (human interstitial collagenase) (Homo sapiens, UniProt P03956).
T1 construct: truncated recombinant enzyme encompassing residues 101-269
T1 sequence (P03956 101-269): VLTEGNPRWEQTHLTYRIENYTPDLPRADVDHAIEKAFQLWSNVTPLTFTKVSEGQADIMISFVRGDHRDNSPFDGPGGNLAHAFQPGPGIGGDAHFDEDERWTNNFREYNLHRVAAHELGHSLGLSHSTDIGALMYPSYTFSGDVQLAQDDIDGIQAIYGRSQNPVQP
The data set can be described thus: Biochemical Assay (Protocol A): inhibition of human collagenase, fluorimetric peptide substrate. Conditions: MMP-1, pH 7.4, 37° C. The source says: (§1) As mentioned above, although low molecular weight MMP inhibitors, including hydroxamates of general formula (A), are already known, there is a strong need for better and diversified molecules for their use in medicine, that is in particular in the control or prevention of degenerative joint diseases such as rheumatoid arthritis and osteoarthritis, or in the management of multiple sclerosis, or in the treatment of invasive tumors. […] For example, the following protocol was used to assess the biochemical activity of compounds of formula (I) against MMP-1, MMP-2, and MMP-3 (respectively, human interstitial collagenase, gelatinase A, and stromelysin-1).
(§2) Human gelatinase-A (MMP-2) was obtained as pro-enzyme (72 kDa) and was activated with 1 mM 4-aminophenylmercuric acetate for 30 min at 37° C. immediately prior to use. Human stromelysin-1 (MMP-3) was obtained as a recombinant pro-enzyme isolated either from E. coli or from baculovirus infected Sf9 insect cells and activated either by heat (1 h, 55° C.) or by 5 mg/l trypsin (30 min, 37° C.) before addition of soybean trypsin inhibitor, finally removed by centrifugation.
(§3) All enzyme assays to determine values of the enzyme-inhibitor dissociation constants were performed using the peptide substrate (7-methoxycoumarin-4-yl)Acetyl-Pro-Leu-Gly-Leu-(3-[2,4-dinitrophenyl]-L-2,3-diaminopropionyl)-Ala-Arg-NH2 (Mca-Pro-Leu-Gly-Leu-Dpa-Ala-Arg--NH2) (C. G. Knight et al., FEBS Lett. 296:263-266, 1992). The enzymes cleave at the Gly-Leu bond removing the internally quenching Dpa group. The release of the highly fluorescent peptide Mca-Pro-Leu was followed fluorimetrically setting the excitation wavelength at 326 nm (bandwidth 5 nm) and the emission at 392 nm (bandwidth 20 nm).
(§4) Continuous fluorescence assay was carried out using a Perkin Elmer LS-50 Fluorescence Spectrophotometer fitted with a thermostatted four position stirring cell changer. Inhibitors were dissolved in the assay buffer ([…] Tris/HCl pH 7.4 containing 0.15 M NaCl, 10 mM CaCl2, 0.01 mM ZnCl2 and 0.05% Brij 35) thermostatted at 37° C. The reaction was started by the addition of substrate ([…]), followed by the addition of the enzyme (e.g. 1.0 nM collagenase, 0.04 nM gelatinase, or 3.0 nM stromelysin) and the increase in fluorescence was monitored over 30 min. The run was repeated at different concentrations of inhibitors in the range 0.1-10000 nM and data at inhibitor concentration in the region if their enzyme-inhibitor dissociation constants were used for calculation.
(§5) Substrate consumption was within 5% of the initial concentration and data outside this range were discarded. The Michaelis constants (Km) for the enzyme-substrate complexes is […] or greater (C. G. Knight et al., reference above), so that the factor (1+S/Km) can be approximated to unity without appreciable error.

Data set [2] deals with T2, MMP-2 (human gelatinase A) (Homo sapiens, UniProt P08253).
T2 sequence (P08253 110-660): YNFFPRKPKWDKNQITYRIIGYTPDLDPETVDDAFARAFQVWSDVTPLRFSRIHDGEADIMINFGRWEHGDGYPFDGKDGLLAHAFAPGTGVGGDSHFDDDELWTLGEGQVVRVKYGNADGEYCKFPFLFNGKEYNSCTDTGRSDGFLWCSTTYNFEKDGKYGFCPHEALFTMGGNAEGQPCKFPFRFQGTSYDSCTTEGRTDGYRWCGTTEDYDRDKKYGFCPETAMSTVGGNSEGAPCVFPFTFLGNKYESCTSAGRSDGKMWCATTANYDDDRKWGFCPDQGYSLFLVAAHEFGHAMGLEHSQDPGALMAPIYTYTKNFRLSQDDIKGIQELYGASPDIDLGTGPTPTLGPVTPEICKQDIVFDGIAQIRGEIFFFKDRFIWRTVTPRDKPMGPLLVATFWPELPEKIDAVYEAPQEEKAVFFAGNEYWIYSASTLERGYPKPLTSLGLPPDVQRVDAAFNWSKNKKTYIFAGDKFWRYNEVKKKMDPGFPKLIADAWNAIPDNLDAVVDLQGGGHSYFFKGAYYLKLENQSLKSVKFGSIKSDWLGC
The data set can be described thus: Biochemical Assay (Protocol A): inhibition of human gelatinase A, fluorimetric peptide substrate. Conditions: MMP-2, pH 7.4, 37° C.
Description: as §1, §2, §3, §4, §5

For data set [3], the target named is T3, MMP-3 (human stromelysin-1) (Homo sapiens, UniProt P08254).
T3 construct: host or cells: E. coli or baculovirus-infected Sf9 insect cells
T3 sequence (P08254 100-477): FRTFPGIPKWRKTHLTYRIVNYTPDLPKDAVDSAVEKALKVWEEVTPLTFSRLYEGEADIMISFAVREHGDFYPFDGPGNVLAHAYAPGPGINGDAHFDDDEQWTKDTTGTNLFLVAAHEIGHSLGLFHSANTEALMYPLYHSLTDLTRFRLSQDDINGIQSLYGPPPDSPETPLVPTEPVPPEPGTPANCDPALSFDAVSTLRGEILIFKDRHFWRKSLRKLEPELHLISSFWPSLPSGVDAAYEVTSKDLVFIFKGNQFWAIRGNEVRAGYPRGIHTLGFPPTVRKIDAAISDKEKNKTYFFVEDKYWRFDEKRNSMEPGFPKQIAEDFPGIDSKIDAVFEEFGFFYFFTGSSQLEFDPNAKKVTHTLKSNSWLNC
The data set can be described thus: Biochemical Assay (Protocol A): inhibition of human stromelysin-1, fluorimetric peptide substrate. The settings on record: MMP-3, pH 7.4, 37° C.
Description: as §1, §2, §3, §4, §5

Data set [4] is described as follows: Pharmacokinetic Assay (Protocol C): plasma levels after i.v. and oral administration to rats. Type of data set: in vivo, rat (male Sprague-Dawley). The settings on record: 15 mg/kg. How it is done:
Male rats (Sprague-Dawley; body weight about 250-300 g) were acclimatized for about one week before the start of the study. […] Before treatment, rats were overnight fasted. For each compound to be assessed, three rats were treated intravenously (injection in the tail vein as a bolus) with a single dose of 15 mg/kg (as free base or free acid if needed) body weight. Other three rats were treated orally (single bolus dose by gastric gavage) with 15 mg/kg of the same compound. In same cases, according to the detection limit of each particular compound, and its availability in stock, these standard doses were modified as needed.
Blood samples were collected into syringes especially prepared for use with the cannulated animals via the SCV cannula. Under standard conditions, blood samples (0.2 mL) were transferred into heparinized tubes at the following times: 0 (pre-dose), 2, 4, 8, 16, 30, 45, 60, 90 min, 2, 4, 6, 8 and 24 h after iv administration; 0 (pre-dose), 5, 10, 30, 45, 60, 90 min, 2, 4, 6, 8, and 24 h after oral administration. Plasma was obtained immediately by centrifugation (about 10,000 rpm for 3 min) and stored at -80° C. till analysis. Plasma samples were assayed for parent drug concentrations using an appropriate analytical method. Under standard conditions, liquid chromatography--tandem mass spectrometry (LC/MS-MS) was used.
Non-compartmental pharmacokinetic calculations were performed with the aid of Pharm-NCA package (SIMED, France). Maximum plasma concentration, Cmax, and the corresponding time, tmax, were read as the coordinates of the highest raw-data point for individual plasma profiles. Terminal phase was evaluated by graphic judgement by eye; terminal rate constant, was calculated as the slope of the terminal linear portion of natural log-transformed plasma concentrations vs. time curve, obtained using linear regression. Terminal half-life, t1/2,z, was calculated as ln(2)/lz. The area under the plasma concentration-time curve was estimated by the linear trapezoidal rule up to the last measured concentration (AUC(0-tz)) and extrapolated to infinity assuming monoexponential decay, using the formula AUC=AUC(0-tz)+C(tz)/lz, where C(tz) is the measured concentration of the last point with detectable concentration. Following iv dosing, systemic clearance was obtained using the formula Cl=Dose/AUC. According to Protocol C, the pharmacokinetic in rats of some representative compounds within the present invention was evaluated. Significant pharmacokinetic data obtained in rats at a 15 mg/kg dose were as follows: […]

Data set [5] concerns Human DU145 Prostatic Carcinoma cells. The data set can be described thus: Antitumor Efficacy Assay (Protocol D): DU145 tumor growth inhibition in Balb nu/nu mice. It is filed as in vivo, human tumor in Balb nu/nu mice. The settings on record: 100 mg/kg b.i.d., i.p., day +1 to day +20; p<0.01, Dunnett method. The source says:
The novel compounds of formula (I) can be used in a method of treatment of the human or animal body by therapy. The condition of a human or animal patient may thus be improved. In particular, compounds the present invention can be used to limit the local growth of established tumors, and to limit growth of secondary metastases. The following protocol was used to evaluate the antitumoral efficacy in vivo of the compounds of the present invention:
Human DU145 Prostatic Carcinoma cells (2×10^6) were injected subcutaneously at day 0 in Balb nu/nu mice. Treatment with inhibitor (i.p. injection) started at day +1 and terminated at day +20. Animal were sacrificed at day +21, and the tumors exised and weighted. Percent tumor growth inhibition vs. control mice (% TGI) was calculated as follows:
% TGI=100-(Mean Tumor Weight in treated group)/(Mean Tumor Weight in […]

Take `CNC(=O)[C@@H](NC(=O)[C@H](CC(C)C)[C@](O)(COC(=O)NC1CCCCC1)C(=O)NO)C(C)(C)C` [Example 16, [(2R,3S)-3-(N-Cyclohexylaminocarbonyl)oxymethyl-3-hydroxy-4-hydroxyamino-2-isobutylsuccinyl]-L-tert-leucine-N-methylamide]: the results for the Ki in data set [1], in data set [2] and in data set [3] were 1.5 nM, 3.2 nM and 23 nM, respectively. The “plasma clearance compared with literature hydroxamic acid MMP inhibitors” value in data set [4] (to our best knowledge) was “inferior to that reported for any hydroxamic acid MMP inhibitor disclosed in the literature”. For the same compound, the AUC iv in data set [4] (iv) worked out at 1.35 mg·min/mL. For the same compound, in data set [4] (rat, plasma, terminal half-life, read-out: t1/2,z (converted)), the half-life was 2.3 h. In data set [4] (rat, plasma, iv), the clearance is 11 mL/min/kg. In data set [4] (rat, plasma, oral), the AUC was 1330 ng·h/mL. In data set [5], the “TGI (percent tumor growth inhibition vs. control)” value is 83%.
